Test results as given in PubChem BioAssay (NCI).
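Cells were grown in 96-well plates and exposed to each compound for 48 hours at five concentrations; endpoints were interpolated linearly between bracketing concentrations, or set to the highest concentration if not reached. Abbreviation: GI50, concentration required for 50% inhibition of growth. TGI: total growth inhibition.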

Key:
Assay in all cases: NCI-60 cell line screen, 48 h
HT29 colon = system: HT29 colon
MCF7 breast = system: MCF7 breast
K-562 leukemia = system: K-562 leukemia
SNB-75 CNS = system: SNB-75 CNS
HOP-62 NSCLC = system: HOP-62 NSCLC
MALME-3M melanoma = system: MALME-3M melanoma
T-47D breast = system: T-47D breast
SF-539 CNS = system: SF-539 CNS
NCI-H522 lung = system: NCI-H522 lung
PC-3 prostate = system: PC-3 prostate

Row | Structure (SMILES) | GI50 (HT29 colon) [µM] | TGI (HT29 colon) [µM] | GI50 (MCF7 breast) [µM] | TGI (MCF7 breast) [µM] | GI50 (K-562 leukemia) [µM] | TGI (K-562 leukemia) [µM] | GI50 (SNB-75 CNS) [µM] | TGI (SNB-75 CNS) [µM] | GI50 (HOP-62 NSCLC) [µM] | TGI (HOP-62 NSCLC) [µM] | GI50 (MALME-3M melanoma) [µM] | TGI (MALME-3M melanoma) [µM] | GI50 (T-47D breast) [µM] | TGI (T-47D breast) [µM] | GI50 (SF-539 CNS) [µM] | TGI (SF-539 CNS) [µM] | GI50 (NCI-H522 lung) [µM] | TGI (NCI-H522 lung) [µM] | TGI (PC-3 prostate) [µM] | GI50 (PC-3 prostate) [µM]
1 | Cn1c(O)c(C(/C=C/c2ccccc2)=NCCN=C(/C=C/c2ccccc2)c2c(O)n(C)c(=O)n(C)c2=O)c(=O)n(C)c1=O | 16.9 | > 50 | 15.9 | > 50 | 14.6 | > 50 | 17.6 | > 50 | 23.4 | > 50 | 30.9 | > 50 | 16.1 | > 50 | 13.7 | 33.3 | 16.8 | > 50 | – | –
2 | COC1CCC(O)C(/C=C/[N+](=O)[O-])C1 (configuration not stated) | – | 11.2 | – | 12.9 | – | 22 | – | 21.5 | – | 19.1 | – | – | – | 44.8 | – | 16.6 | – | 23.2 | 6.01 | –
3 | c1ccc(-c2cc(C3CO3)c3ccccc3n2)cc1 (configuration not stated) | – | 35.8 | – | 47.8 | – | 93.1 | – | 62.6 | – | 67.5 | – | – | – | 65.8 | – | 56.7 | – | 14.6 | 41.2 | –
4 | CC(=O)O[C@H](C[C@H](C(C)C)N(C)C(=O)[C@@H](NC(=O)[C@H]1CCCCN1C)C(C)C)c1nc(C(=O)N[C@@H](Cc2ccccc2)C[C@H](C)C(=O)O)c(C(C)C)s1 | < 0.00333 | > 33.3 | < 0.00333 | > 33.3 | < 0.00333 | > 33.3 | < 0.00333 | 29.1 | < 0.00333 | > 33.3 | < 0.00333 | > 33.3 | – | – | < 0.00333 | 0.00391 | < 0.00333 | 0.499 | > 33.3 | < 0.00333
5 | COc1ccc2c(c1)[n+]([O-])c(-c1ccccc1)c(N)[n+]2[O-] | – | > 100 | – | – | – | > 100 | – | > 100 | – | 96.7 | – | 47.2 | – | – | – | > 100 | – | 34.4 | – | –
6 | COC(=O)C1=C(C(=O)OC)C23CC1C1C(C(=O)OC)=C(C(=O)OC)C12C1C=CC3C2C(=O)OC(=O)C21 (configuration not stated) | – | > 100 | – | – | – | > 100 | – | 47.7 | – | > 100 | – | > 100 | – | – | – | > 100 | – | 63.5 | – | –
7 | Oc1ccc(O)c(-c2cc(-c3ccccc3)nn2-c2ccccc2)c1 | 73.9 | > 100 | 6.55 | > 100 | 21.7 | > 100 | – | – | 16.8 | 32.3 | – | – | 19.6 | 98.4 | – | – | 31 | > 100 | > 100 | 16.7
8 | CN[C@@H](C)[C@@H](N)c1ccccc1 | – | > 100 | – | – | – | > 100 | – | > 100 | – | – | – | > 100 | – | – | – | > 100 | – | > 100 | – | –
9 | O=C(CSC(c1ccccc1)c1ccccc1)N/N=C/c1cccc(Cl)c1 | – | – | 19.1 | 38.4 | 21.6 | 41.9 | – | – | 17.3 | 31.6 | 13 | 26.1 | – | – | 18.8 | 33.3 | 10.1 | 23.7 | 35.7 | 19.4
10 | CC(=O)c1c(C)n(C)c2c1nnc1ccccc12 | – | > 100 | – | 86.3 | – | – | – | – | – | > 100 | – | > 100 | – | > 100 | – | > 100 | – | > 100 | > 100 | –
11 | O=C1N(c2ccccc2)C(=O)C2(SC=NN2Cc2ccccc2)N1c1ccccc1 (configuration not stated) | – | > 100 | – | – | – | > 100 | – | > 100 | – | > 100 | – | > 100 | – | – | – | > 100 | – | > 100 | – | –
12 | COc1ccc(N=Nc2c(-c3ccccc3)nn(C(=O)CC(=O)Nc3cccc(Cl)c3)c2-c2ccccc2)cc1 | – | > 100 | – | – | – | > 100 | – | > 100 | – | > 100 | – | > 100 | – | – | – | > 100 | – | > 100 | – | –
13 | CC1(C)CCc2cc3c(cc2O1)OCC1c2cc4c(cc2OC31)OCO4 (configuration not stated) | – | > 100 | – | – | – | > 100 | – | > 100 | – | > 100 | – | > 100 | – | – | – | > 100 | – | > 100 | – | –
14 | COc1cnc2c(c1)C(=O)c1c-2n(CCCN2CCC(O)CC2)c(=O)c2cc(F)ccc12 | – | – | 0.0312 | 1.17 | 0.216 | 2.31 | 0.252 | 2.59 | 0.142 | 0.645 | 0.298 | 1.2 | 0.0996 | 0.86 | 0.295 | 1.14 | 0.0584 | 0.479 | – | –
15 | O=c1cccccc1NCCCCCCNc1cccccc1=O | – | > 100 | – | – | – | > 100 | – | > 100 | – | > 100 | – | > 100 | – | – | – | – | – | > 100 | – | –
16 | CCOC(=O)C1=C(C)NC2SC(=O)/C(=C\c3ccccc3O)N2C1c1ccccc1 (configuration not stated) | 19.5 | 41.4 | 86 | > 100 | 26.6 | > 100 | 20.4 | 70.8 | 31.4 | > 100 | – | – | 16.1 | 51.7 | 35.5 | > 100 | 26.2 | 76.3 | 74.1 | 26.5
17 | Cc1cccc(C(=O)/C=C/SC(=NC#N)SCc2ccccc2)c1 | 56.5 | > 100 | 34.3 | > 100 | 22 | > 100 | – | – | 23.2 | 45.4 | 12.3 | 32 | 21.6 | > 100 | 6.67 | 31.7 | 27.1 | > 100 | 50.8 | 16.4
18 | CO/N=C(\C)c1cccc(Nc2cc(-c3ccccc3)nc3c(O)cccc23)c1 | 21.8 | 59.7 | – | – | 0.656 | > 100 | 20.5 | 96.2 | 3.47 | 8.39 | 12.5 | 35.4 | 4.32 | 26.7 | 10.8 | 39.9 | 2.78 | 6.95 | 24.3 | 4.13
